{"source": "the supplement of paper PMC10307832"}
{"compound": "O=c1ncccn1[C@@H]1O[C@H](CO)[C@@H](O)[C@H]1O [Zebularine] + Cc1cc(Nc2cc(N3CCN(C)CC3)nc(Sc3ccc(NC(=O)C4CC4)cc3)n2)n[nH]1 [Tozasertib] (partner 0.1 µM)", "test": "relative viability (nuclei count vs DMSO), 5 days (fraction); higher = more cells survive", "details": "first compound 1 µM", "outline": "(§1)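 Relative viability was taken as the ratio of nuclei in treated wells to nuclei in vehicle wells. Lung cancer cell lines in 1536-well plates received compounds by pin tool one day after seeding, either one drug alone or a fixed anchor-drug dose plus five library-drug doses (not always all listed) in √10 steps. Nuclei were counted on 4× images after 5 days of treatment, and values are medians of duplicate plates.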"}
{"cell line": "NCI-H1650", "relative viability": 0.509}
{"cell line": "NCI-H1993", "relative viability": 0.593}
{"cell line": "SW 1573", "relative viability": 0.223}
{"cell line": "NCI-H838", "relative viability": 0.251}
{"cell line": "LCLC-103H", "relative viability": 0.448}
{"cell line": "NCI-H520", "relative viability": 0.43}
{"cell line": "NCI-H2126", "relative viability": 0.911}
{"cell line": "EMC-BAC-2", "relative viability": 0.326}
{"cell line": "NCI-H2085", "relative viability": 0.9}
{"cell line": "HCC-366", "relative viability": 0.169}
{"cell line": "NCI-H1666", "relative viability": 0.612}
{"cell line": "NCI-H596", "relative viability": 0.847}
{"cell line": "LK-2", "relative viability": 0.179}
{"cell line": "NCI-H2087", "relative viability": 0.255}
{"cell line": "NCI-H1648", "relative viability": 0.551}
{"cell line": "SK-MES-1", "relative viability": 1.02}
{"cell line": "H3255", "relative viability": 0.542}
{"cell line": "COR-L23", "relative viability": 0.216}
{"cell line": "COR-L 105", "relative viability": 0.316}
{"cell line": "LOU-NH91", "relative viability": 0.7}
{"cell line": "ChaGo-K-1", "relative viability": 0.22}
{"cell line": "NCI-H2170", "relative viability": 0.815}
{"cell line": "HCC-44", "relative viability": 1.14}
{"cell line": "HCC-78", "relative viability": 0.423}
{"compound": "O=c1ncccn1[C@@H]1O[C@H](CO)[C@@H](O)[C@H]1O [Zebularine] + Cc1cc(Nc2cc(N3CCN(C)CC3)nc(Sc3ccc(NC(=O)C4CC4)cc3)n2)n[nH]1 [Tozasertib] (partner 0.1 µM)", "test": "relative viability (nuclei count vs DMSO), 5 days (fraction); higher = more cells survive", "details": "first compound 3.162 µM", "outline": "as §1"}
{"cell line": "NCI-H2342", "relative viability": 0.4}
{"cell line": "NCI-H1623", "relative viability": 0.437}
{"cell line": "NCI-H727", "relative viability": 0.645}
{"cell line": "NCI-H1650", "relative viability": 0.308}
{"cell line": "NCI-H1993", "relative viability": 0.582}
{"cell line": "SW 1573", "relative viability": 0.163}
{"cell line": "NCI-H838", "relative viability": 0.304}
{"cell line": "LCLC-103H", "relative viability": 0.43}
{"cell line": "NCI-H520", "relative viability": 0.561}
{"cell line": "NCI-H2126", "relative viability": 0.807}
{"cell line": "EMC-BAC-2", "relative viability": 0.313}
{"cell line": "NCI-H2085", "relative viability": 0.804}
{"cell line": "HCC-366", "relative viability": 0.112}
{"cell line": "NCI-H1666", "relative viability": 0.633}
{"cell line": "NCI-H596", "relative viability": 1.1}
{"cell line": "LK-2", "relative viability": 0.188}
{"cell line": "NCI-H2087", "relative viability": 0.338}
{"cell line": "NCI-H1648", "relative viability": 0.418}
{"cell line": "SK-MES-1", "relative viability": 0.991}
{"cell line": "H3255", "relative viability": 0.61}
{"cell line": "COR-L23", "relative viability": 0.263}
{"cell line": "COR-L 105", "relative viability": 0.285}
{"cell line": "LOU-NH91", "relative viability": 0.641}
{"cell line": "ChaGo-K-1", "relative viability": 0.208}
{"cell line": "NCI-H2170", "relative viability": 0.708}
{"cell line": "HCC-44", "relative viability": 1.05}
{"cell line": "HCC-78", "relative viability": 0.429}
{"compound": "O=c1ncccn1[C@@H]1O[C@H](CO)[C@@H](O)[C@H]1O [Zebularine] + Cc1cc(Nc2cc(N3CCN(C)CC3)nc(Sc3ccc(NC(=O)C4CC4)cc3)n2)n[nH]1 [Tozasertib] (partner 0.1 µM)", "test": "relative viability (nuclei count vs DMSO), 5 days (fraction); higher = more cells survive", "details": "first compound 10 µM", "outline": "as §1"}
{"cell line": "NCI-H2342", "relative viability": 0.446}
{"cell line": "NCI-H1623", "relative viability": 0.39}
{"cell line": "NCI-H727", "relative viability": 0.602}
{"cell line": "NCI-H1650", "relative viability": 0.325}
{"cell line": "NCI-H1993", "relative viability": 0.53}
{"cell line": "NCI-H838", "relative viability": 0.239}
{"cell line": "LCLC-103H", "relative viability": 0.402}
{"cell line": "NCI-H520", "relative viability": 0.353}
{"cell line": "NCI-H2126", "relative viability": 0.727}
{"cell line": "EMC-BAC-2", "relative viability": 0.266}
{"cell line": "NCI-H2085", "relative viability": 0.688}
{"cell line": "HCC-366", "relative viability": 0.182}
{"cell line": "NCI-H1666", "relative viability": 0.538}
{"cell line": "NCI-H596", "relative viability": 0.618}
{"cell line": "LK-2", "relative viability": 0.171}
{"cell line": "NCI-H2087", "relative viability": 0.215}
{"cell line": "NCI-H1648", "relative viability": 0.407}
{"cell line": "SK-MES-1", "relative viability": 0.599}
{"cell line": "H3255", "relative viability": 0.271}
{"cell line": "COR-L23", "relative viability": 0.186}
{"cell line": "COR-L 105", "relative viability": 0.345}
{"cell line": "LOU-NH91", "relative viability": 0.68}
{"cell line": "ChaGo-K-1", "relative viability": 0.211}
{"cell line": "NCI-H2170", "relative viability": 0.655}
{"cell line": "HCC-44", "relative viability": 0.82}
{"cell line": "HCC-78", "relative viability": 0.219}
{"compound": "O=c1ncccn1[C@@H]1O[C@H](CO)[C@@H](O)[C@H]1O [Zebularine] + Cc1cc(Nc2cc(N3CCN(C)CC3)nc(Sc3ccc(NC(=O)C4CC4)cc3)n2)n[nH]1 [Tozasertib] (partner 0.1 µM)", "test": "relative viability (nuclei count vs DMSO), 5 days (fraction); higher = more cells survive", "details": "first compound 31.62 µM", "outline": "as §1"}
{"cell line": "NCI-H2342", "relative viability": 0.476}
{"cell line": "NCI-H1623", "relative viability": 0.535}
{"cell line": "NCI-H727", "relative viability": 0.623}
{"cell line": "NCI-H1650", "relative viability": 0.361}
{"cell line": "NCI-H1993", "relative viability": 0.614}
{"cell line": "SW 1573", "relative viability": 0.137}
{"cell line": "NCI-H838", "relative viability": 0.216}
{"cell line": "LCLC-103H", "relative viability": 0.471}
{"cell line": "NCI-H520", "relative viability": 0.269}
{"cell line": "NCI-H2126", "relative viability": 0.791}
{"cell line": "EMC-BAC-2", "relative viability": 0.28}
{"cell line": "NCI-H2085", "relative viability": 0.609}
{"cell line": "HCC-366", "relative viability": 0.132}
{"cell line": "NCI-H1666", "relative viability": 0.662}
{"cell line": "NCI-H596", "relative viability": 0.958}
{"cell line": "LK-2", "relative viability": 0.178}
{"cell line": "NCI-H2087", "relative viability": 0.225}
{"cell line": "NCI-H1648", "relative viability": 0.342}
{"cell line": "SK-MES-1", "relative viability": 0.611}
{"cell line": "H3255", "relative viability": 0.106}
{"cell line": "COR-L23", "relative viability": 0.181}
{"cell line": "COR-L 105", "relative viability": 0.367}
{"cell line": "LOU-NH91", "relative viability": 0.704}
{"cell line": "ChaGo-K-1", "relative viability": 0.172}
{"cell line": "NCI-H2170", "relative viability": 0.636}
{"cell line": "HCC-44", "relative viability": 0.418}
{"cell line": "HCC-78", "relative viability": 0.278}
{"compound": "O=c1ncccn1[C@@H]1O[C@H](CO)[C@@H](O)[C@H]1O [Zebularine] + Cc1cc(Nc2cc(N3CCN(C)CC3)nc(Sc3ccc(NC(=O)C4CC4)cc3)n2)n[nH]1 [Tozasertib] (partner 0.1 µM)", "test": "relative viability (nuclei count vs DMSO), 5 days (fraction); higher = more cells survive", "details": "first compound 100 µM", "outline": "as §1"}
{"cell line": "NCI-H2342", "relative viability": 0.469}
{"cell line": "NCI-H1623", "relative viability": 0.389}
{"cell line": "NCI-H727", "relative viability": 0.386}
{"cell line": "NCI-H1650", "relative viability": 0.341}
{"cell line": "NCI-H1993", "relative viability": 0.573}
{"cell line": "SW 1573", "relative viability": 0.148}
{"cell line": "NCI-H838", "relative viability": 0.163}
{"cell line": "LCLC-103H", "relative viability": 0.355}
{"cell line": "NCI-H520", "relative viability": 0.25}
{"cell line": "NCI-H2126", "relative viability": 0.479}
{"cell line": "EMC-BAC-2", "relative viability": 0.313}
{"cell line": "NCI-H2085", "relative viability": 0.529}
{"cell line": "HCC-366", "relative viability": 0.0608}
{"cell line": "NCI-H1666", "relative viability": 0.486}
{"cell line": "NCI-H596", "relative viability": 0.845}
{"cell line": "LK-2", "relative viability": 0.166}
{"cell line": "NCI-H2087", "relative viability": 0.155}
{"cell line": "NCI-H1648", "relative viability": 0.379}
{"cell line": "SK-MES-1", "relative viability": 0.248}
{"cell line": "H3255", "relative viability": 0.627}
{"cell line": "COR-L23", "relative viability": 0.119}
{"cell line": "COR-L 105", "relative viability": 0.319}
{"cell line": "LOU-NH91", "relative viability": 0.384}
{"cell line": "ChaGo-K-1", "relative viability": 0.195}
{"cell line": "NCI-H2170", "relative viability": 0.285}
{"cell line": "HCC-44", "relative viability": 0.361}
{"cell line": "HCC-78", "relative viability": 0.259}
{"compound": "CC(C)CCN1c2nc(Nc3cc(F)c(O)c(F)c3)ncc2N(C)C(=O)C1C [BI-D1870] + Cc1nc(Nc2ncc(C(=O)Nc3c(C)cccc3Cl)s2)cc(N2CCN(CCO)CC2)n1 [Dasatinib] (partner 0.075 µM)", "test": "relative viability (nuclei count vs DMSO), 5 days (fraction); higher = more cells survive", "details": "first compound 0.04 µM", "outline": "as §1"}
{"cell line": "NCI-H2342", "relative viability": 0.333}
{"cell line": "NCI-H1623", "relative viability": 0.558}
